# Assay results reported in patent publication US20230172915A1, “DHODH INHIBITOR FOR THE TREATMENT OF COVID-19” (priority 2020, published 2023).
# Like-named read-outs stand apart in the source and are kept apart here.
# Tests used:
# [1] = tested on: Ebola virus; assay: microbe, parasite or virus in culture; format: cell-based; settings: Zaire ebolavirus, Vero, read-out: EC50 Ebola virus
# [2] = Bacterial mutagenicity (Ames) test
# [3] = tested on: Poliovirus; assay: microbe, parasite or virus in culture; format: cell-based; settings: Enterovirus C, HeLa, read-out: EC50 Poliovirus
# [4] = Single- and repeat-dose toxicology studies in rats
# [5] = Study PTC299-ONC-007-NF2: PTC299 plasma level; settings: human, oral, 100 mg BID
# [6] = tested on: West Nile virus; assay: Antiviral activity, West Nile virus (Vero cells); format: cell-based
# [7] = tested on: PBMCs plus venular endothelial cells (sAg); assay: BioMAP profiling, SAg system; format: cell-based; settings: for inhibition at 0.01 µM: 10 nM; for inhibition at 0.1 µM: 100 nM
# Protocol: The effect of PTC299 on cytokine production was assessed using BioMAP profiling (BioSeek, now part of Eurofins). The BioMAP system is comprised of complex co-cultures of primary peripheral blood mononuclear cells (PBMCs) with other cell types including B cells, fibroblasts, and endothelial cells allowing for the measurement of physiologically relevant biomarker readouts of the activity of a compound. Using this system, cytokine production was evaluated in the following models of primary cell disease models: • Peripheral blood mononuclear cells (PBMCs) plus venular endothelial cells (sAg) • PBMCs plus B cells (BT) • PBMCs plus fibroblasts (HDFSAg) • TH2 cells plus venular endothelial cells (/TH2).
# Abbreviations in Table 4: BCR, B-cell receptor; BT System, co-culture of CD19+ B cells and PBMC that utilizes BCR stimulation and sub-mitogenic TCR stimulation; HDFSAg system, co-culture of human primary dermal fibroblasts and PBMC that is stimulated with sub-mitogenic TCR levels; IL, interleukin; PBMC, Peripheral Blood Mononuclear Cell; SAg system, co-culture of endothelial cells and PBMC stimulated with mitogenic levels of TCR ligands; TCR, T-cell receptor; /TH2 system, co-culture of endothelial cells and Th2 blasts stimulated with TCR ligands and cytokines; Th2, T helper type 2; VEGF, vascular endothelial growth factor.
# [8] = tested on: Respiratory syncytial virus; assay: Antiviral activity, Respiratory syncytial virus (Hep2 cells); format: cell-based; settings: human respiratory syncytial virus, HEp-2
structure (smiles),measurement,setting,value
"COc1ccc([C@H]2c3[nH]c4ccc(Cl)cc4c3CCN2C(=O)Oc2ccc(Cl)cc2)cc1 [PTC299, 4-chlorophenyl (S)-6-chloro-1-(4-methoxyphenyl)-1,3,4,9-tetrahydro-2H-pyrido[3,4-b]indole-2-carboxylate]",EC50,[1],9 nM
same,bacterial mutagenicity (Ames) test,[2],negative
same,EC50,[3],0.6 nM
same,"alanine aminotransferase, aspartate aminotransferase, and total bilirubin",[4]; rats dosed through 28 days,no increases
same,histopathologic findings in the liver,[4]; rats dosed through 28 days,no histopathologic findings in the liver
same,PTC299-related mortality,"[4]; rats, toxicology studies",No PTC299-related mortality was observed
same,concentration at 4 h,[5],1900 ng/mL
same,EC50,[6],10 nM
same,inhibition at 0.01 µM,[7]; read-out: % Inhibition IL-8,27%
same,inhibition at 0.01 µM,[7]; read-out: % Inhibition MCP-1,31%
same,inhibition at 0.1 µM,[7]; read-out: % Inhibition CD40,29%
same,inhibition at 0.1 µM,[7]; read-out: % Inhibition IL-8,29%
same,inhibition at 0.1 µM,[7]; read-out: % Inhibition MCP-1,45%
same,inhibition at 0.1 µM,[7]; read-out: % Inhibition Proliferation,23%
same,EC50,[8],4 nM
